Results as given in ChEMBL document CHEMBL5236564, “An overview of the development of EED inhibitors to disable the PRC2 function” (RSC Med Chem, 2022).
Bridge positions count the residues as written; N and C are the ends. Square brackets hold non-standard residues; d marks the D form. Peptide text beside a SMILES is read from it. ξ: configuration not given here. S5 = C=CCCC[C@](C)(N)C(=O)O; ξIle = CC[C@H](C)C(N)C(=O)O

How the values were obtained:
[1] = Inhibition of human N- terminal 6 his sumo-tagged EED (81 to 441 residues)/EZH2(39 to 63 residues) (unknown origin) interaction expressed in Escherichia coli BL21(DE3) incubated for 2 hrs by fluorescence polarization based competitive assay
[2] = Oral bioavailability in mouse; type: ADME, organism-based; settings: in vivo
[3] = tested on: KARPAS-422; test: Antitumor activity against human KARPAS-422 cells xenografted in mouse assessed as tumor growth inhibition at 100 mg/kg, po administered twice daily for 36 days relative to control; type: functional; settings: KARPAS-422, 864 h, time 36 day, read-out: TGI
[4] = tested on: Pfeiffer; test: Antitumor activity against human Pfeiffer cells xenografted in mouse assessed as tumor growth inhibition at 100 mg/kg, po administered twice daily for 36 days relative to control; type: functional; settings: 864 h, time 36 day, read-out: TGI
[5] = target: T1, Polycomb protein EED (Homo sapiens, UniProt O75530); test: Displacement of H3K27me3 from EED (unknown origin) by competitive binding assay
Target sequence in this assay (O75530 whole entry): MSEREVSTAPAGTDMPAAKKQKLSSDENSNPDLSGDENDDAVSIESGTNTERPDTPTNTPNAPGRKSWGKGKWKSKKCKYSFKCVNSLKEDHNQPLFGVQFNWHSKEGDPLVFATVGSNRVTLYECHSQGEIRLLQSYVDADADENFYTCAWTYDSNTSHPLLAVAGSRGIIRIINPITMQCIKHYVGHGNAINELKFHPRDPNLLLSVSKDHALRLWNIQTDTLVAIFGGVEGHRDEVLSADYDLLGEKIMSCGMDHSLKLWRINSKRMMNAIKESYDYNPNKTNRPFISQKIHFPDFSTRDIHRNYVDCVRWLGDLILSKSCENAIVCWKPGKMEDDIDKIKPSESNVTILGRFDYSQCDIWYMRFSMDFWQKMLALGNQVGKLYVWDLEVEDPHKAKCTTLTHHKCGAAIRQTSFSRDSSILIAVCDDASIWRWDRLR

[6] = Inhibition of EED/EZH2 (unknown origin) interaction by fluorescence polarization assay; parameters: species or system Homo sapiens
[7] = target: T1, Polycomb protein EED; test: Stabilization of EED (unknown origin) assessed as change in melting temperature by thermal shift assay; settings: tested as the 2H-labelled form
Target sequence in this assay (O75530 2-441 limits assumed): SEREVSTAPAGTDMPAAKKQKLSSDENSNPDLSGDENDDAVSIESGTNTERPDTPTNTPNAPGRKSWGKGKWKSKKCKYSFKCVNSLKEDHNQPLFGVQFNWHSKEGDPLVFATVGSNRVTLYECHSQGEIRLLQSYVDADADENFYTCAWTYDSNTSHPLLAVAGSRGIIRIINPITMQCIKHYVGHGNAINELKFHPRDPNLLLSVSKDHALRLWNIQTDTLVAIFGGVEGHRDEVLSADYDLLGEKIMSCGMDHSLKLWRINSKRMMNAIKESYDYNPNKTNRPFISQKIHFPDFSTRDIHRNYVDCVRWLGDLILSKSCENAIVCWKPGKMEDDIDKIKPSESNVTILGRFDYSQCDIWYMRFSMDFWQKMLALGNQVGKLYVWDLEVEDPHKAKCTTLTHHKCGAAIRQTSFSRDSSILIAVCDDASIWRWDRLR

[8] = tested on: KARPAS-422; test: Synergistic growth inhibition against human KARPAS-422 cells assessed as reduction in H3K27me3 level by measuring synergistic score upto 10 uM measured after 4 days in presence of EI1; type: functional; settings: time 4 day
[9] = target: EZH2/SUZ12/EED complex (Homo sapiens, UniProt O75530+Q15022+Q15910); test: Binding affinity to PRC2 complex of EZH2-EED-SUZ12 (unknown origin) assessed as dissociation constant by isothermal titration calorimetry method; type: protein-complex assay
Chain of EZH2/SUZ12/EED complex (Q15910 whole entry): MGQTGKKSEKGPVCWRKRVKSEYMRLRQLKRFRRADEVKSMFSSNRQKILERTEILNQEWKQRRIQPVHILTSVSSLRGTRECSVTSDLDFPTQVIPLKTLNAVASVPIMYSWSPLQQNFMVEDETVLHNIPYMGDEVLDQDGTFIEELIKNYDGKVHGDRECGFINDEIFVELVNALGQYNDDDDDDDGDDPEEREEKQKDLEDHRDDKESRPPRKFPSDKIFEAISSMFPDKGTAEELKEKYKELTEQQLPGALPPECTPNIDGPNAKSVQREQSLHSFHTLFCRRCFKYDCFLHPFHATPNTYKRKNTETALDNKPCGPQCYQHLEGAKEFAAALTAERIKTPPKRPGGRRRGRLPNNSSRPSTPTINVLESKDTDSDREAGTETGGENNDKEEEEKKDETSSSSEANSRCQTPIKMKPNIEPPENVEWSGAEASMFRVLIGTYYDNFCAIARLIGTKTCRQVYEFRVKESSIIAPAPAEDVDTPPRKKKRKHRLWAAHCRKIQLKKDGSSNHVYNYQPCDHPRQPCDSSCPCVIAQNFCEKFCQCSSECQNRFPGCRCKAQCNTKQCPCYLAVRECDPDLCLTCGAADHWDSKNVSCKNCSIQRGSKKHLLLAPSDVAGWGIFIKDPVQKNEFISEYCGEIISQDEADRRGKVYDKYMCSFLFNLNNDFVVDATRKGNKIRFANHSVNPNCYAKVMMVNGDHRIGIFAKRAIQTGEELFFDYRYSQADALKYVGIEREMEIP
Chain of EZH2/SUZ12/EED complex (O75530 whole entry): as the sequence (O75530 whole entry) above
Chain of EZH2/SUZ12/EED complex (Q15022 whole entry): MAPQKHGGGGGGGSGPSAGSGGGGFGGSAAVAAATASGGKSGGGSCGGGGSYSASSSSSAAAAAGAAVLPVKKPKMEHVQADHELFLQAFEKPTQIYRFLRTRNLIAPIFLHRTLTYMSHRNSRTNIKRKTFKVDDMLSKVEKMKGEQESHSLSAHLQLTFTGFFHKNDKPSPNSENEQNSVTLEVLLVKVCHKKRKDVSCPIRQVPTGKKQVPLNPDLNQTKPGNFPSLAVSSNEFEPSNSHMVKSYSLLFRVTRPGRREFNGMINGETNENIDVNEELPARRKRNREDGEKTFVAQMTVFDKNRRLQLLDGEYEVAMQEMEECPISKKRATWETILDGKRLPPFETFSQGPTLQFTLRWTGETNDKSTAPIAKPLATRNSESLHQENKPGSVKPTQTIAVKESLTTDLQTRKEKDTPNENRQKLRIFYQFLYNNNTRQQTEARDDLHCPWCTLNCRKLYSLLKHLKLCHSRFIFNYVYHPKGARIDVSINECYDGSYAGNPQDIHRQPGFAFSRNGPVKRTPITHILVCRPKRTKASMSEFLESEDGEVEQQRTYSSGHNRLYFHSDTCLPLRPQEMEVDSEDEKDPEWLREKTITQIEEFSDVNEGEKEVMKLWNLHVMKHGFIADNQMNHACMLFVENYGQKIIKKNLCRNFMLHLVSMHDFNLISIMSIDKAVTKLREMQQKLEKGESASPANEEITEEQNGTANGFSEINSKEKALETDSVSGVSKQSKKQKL

[10] = tested on: KARPAS-422; test: Synergistic growth inhibition against human KARPAS-422 cells assessed as reduction in cell proliferation by measuring synergistic score at upto 10 uM measured after 6 days in presence of EI1; type: functional; settings: time 6 day
[11] = Inhibition of PRC2 (unknown origin) using H3K27me0 as peptide substrate by LC-MS based analysis; parameters: species or system Homo sapiens
[12] = tested on: KARPAS-422; test: Antitumor activity against human KARPAS-422 cells xenografted in mouse at 40 mg/kg via oral gavage and mesured after 32 days by caliper method relative to control; type: functional; settings: KARPAS-422, 768 h, time 32 day, read-out: TGI
[13] = target: EZH2/SUZ12/EED complex (Homo sapiens) (UniProt Q15910+O75530+Q15022)
Chain of EZH2/SUZ12/EED complex (Homo sapiens) (O75530 2-441 partner limits assumed): as the sequence (O75530 2-441 limits assumed) above
Chain of EZH2/SUZ12/EED complex (Homo sapiens) (Q15022 whole entry partner): as the sequence (Q15022 whole entry) above
Chain of EZH2/SUZ12/EED complex (Homo sapiens) (Q15910 whole entry): as the sequence (Q15910 whole entry) above
Description: Stabilization of PRC2 complex of EZH2-EED-SUZ12 (unknown origin) assessed as thermal stability by measuring increase in melting temperature by thermal shift assay

[14] = tested on: KARPAS-422; test: Synergistic cell viability against human KARPAS-422 cells by measuring combination index score at 0.3 to 3 uM measured after 7 days in presence of GSK126; type: functional; settings: dose 0.3-3 µM; time 7 day
[15] = target: T1, Polycomb protein EED; test: Binding affinity to C-terminal histidine tagged EED (unknown origin) expressed in Escherichia coli BL21(DE3) incubated for 15 mins by fluorescence polarization analysis
Target sequence in this assay (O75530 whole entry): as the sequence (O75530 whole entry) above

[16] = Synergistic cell viability against human MLL-AF9 cells by measuring combination index score at 0.3 to 3 uM measured after 7 days in presence of GSK126; type: functional; settings: dose 0.3-3 µM; time 7 day
[17] = target: T1, Polycomb protein EED; test: Binding affinity to his tagged EED (1 to 441 residues) (unknown origin) incubated for 20 mins in presence of biotinylated H3K27me3 peptide (19 to 33 residues) by alphascreen competitive binding assay
Target sequence in this assay (O75530 whole entry): as above

**Q.** With Cc1ccc(C(C2=C(O)CC(C)(C)CC2=O)C2C(=O)CC(C)(C)CC2=O)s1 (stereo not given) as the compound, how does the IC50 [1] read?
**A.** Its IC50 is 63.9 µM.

**Q.** With CC[C@@H](C)n1cc(C)c2c(C(=O)NCc3c(C)cc(C)[nH]c3=O)cc(-c3ccc(N4CCNCC4)nc3)cc21 as the compound, how does the bioavailability [2] read?
**A.** Its bioavailability is 0.2%.

**Q.** Which results are given for [2H]C([2H])(Nc1ncc(-c2cccnc2C)c(=O)[nH]1)c1c(F)ccc2c1CCO2?
**A.** inhibition in vivo at 100 mg/kg [3]: 85%; inhibition in vivo at 100 mg/kg [4]: 96%; IC50 [5]: 0.0045 µM

**Q.** With COC(=O)C1=C(C)NC(C)=C(C(=O)OC)C1c1ccccc1[N+](=O)[O-] [NIFEDIPINE] as the compound, how does the IC50 [6] read?
**A.** The IC50 was 343 µM.

**Q.** Which IC50 [1] does the source give for Cc1sc(NC(=O)CCCCC(=O)Nc2sc(C)c(C)c2C(N)=O)c(C(N)=O)c1C here?
**A.** Its IC50 is 54.9 µM.

**Q.** For Cc1ncccc1-c1cnc(NCc2c(F)ccc3c2CCO3)[nH]c1=O, which ΔTm [7] is on record?
**A.** Its ΔTm is 6 °C.

**Q.** Which IC50 [6] does the source give for CN1CCc2cccc3c2[C@H]1Cc1ccc(O)c(O)c1-3 [APOMORPHINE] here?
**A.** The IC50 was 15.5 µM.

**Q.** Which Activity [8] does the source give for CS(=O)(=O)c1ccc(-c2cnc(NCc3ccco3)n3cnnc23)cc1 here?
**A.** Its Activity is 2.17.

**Q.** And the Kd [9]?
**A.** Its Kd is 0.082 µM.

**Q.** What about the Activity [10] of the same compound?
**A.** Its Activity is 1.67.

**Q.** And the IC50 [11]?
**A.** Its IC50 is 0.0234 µM.

**Q.** What about the inhibition in vivo at 40 mg/kg [12] of the same compound?
**A.** Its inhibition in vivo at 40 mg/kg is 100%.

**Q.** What about the ΔTm [13] of the same compound?
**A.** The ΔTm was > 8 °C.

**Q.** With CC[C@H](C)C1NC(=O)[C@H](CCCCN)NC(=O)[C@@](C)(NC(=O)[C@H](CCCNC(=N)N)NC(=O)[C@H](CC(N)=O)NC(=O)[C@H](CO)NC(=O)[C@H](CO)NC(=O)[C@H](Cc2ccccc2)NC(C)=O)CCC/C=C/CCC[C@@](C)(C(=O)N[C@@H](CCCNC(=N)N)C(=O)N[C@H](C(=O)N[C@@H](CCC(N)=O)C(=O)N[C@H](C(=O)N[C@@H](CC(C)C)C(=O)N[C@@H](CC(N)=O)C(=O)N[C@@H](CCC(N)=O)C(=O)N[C@@H](CCC(=O)O)C(=O)N[C@@H](Cc2c[nH]c3ccccc23)C(=O)N[C@@H](CCCCN)C(=O)N[C@@H](CCC(N)=O)C(=O)N[C@@H](CCCNC(=N)N)C(=O)N[C@@H](CCCNC(=N)N)C(=O)N[C@H](C(=O)N[C@@H](CCC(N)=O)C(=O)N2CCC[C@H]2C(=O)N[C@H](C(=O)O)C(C)C)[C@@H](C)CC)[C@@H](C)CC)[C@@H](C)O)NC(=O)[C@H](CC(C)C)NC1=O (stereo not given in full) (Ac-FSSNR[S5]K[ξIle]L[S5]RTQILNQEWKQRRIQPV-OH; staple (E) 6-10) as the compound, how does the Activity [14] read?
**A.** The Activity was 0.74.

**Q.** What about the Kd [15] of the same compound?
**A.** Its Kd is 0.00032 µM.

**Q.** And the Activity [16]?
**A.** The Activity was 0.11.

**Q.** Which IC50 [17] does the source give for Cc1cc(C)n(-c2cc(N3CCCc4ccccc43)ccc2[N+](=O)[O-])n1 here?
**A.** The IC50 was 8.76 µM.

**Q.** For CCCCC1C(=O)N(c2ccccc2)N(c2ccc(O)cc2)C1=O (stereo not given) [OXYPHENBUTAZONE ANHYDROUS], which IC50 [6] is on record?
**A.** The IC50 was 229 µM.
